Reference: ChEMBL document CHEMBL1129896, “New non peptidic C5a receptor antagonists” (Bioorg Med Chem Lett, 1997)

The compounds below were run against T1, C5a anaphylatoxin chemotactic receptor 1 (Homo sapiens) (UniProt P21730) (assay: Tested in vitro for the inhibition against C5a anaphylatoxin chemotactic receptor assayed on human monocyte cell line U937 at 30 uM). Conditions: U-937.
T1 sequence (whole entry): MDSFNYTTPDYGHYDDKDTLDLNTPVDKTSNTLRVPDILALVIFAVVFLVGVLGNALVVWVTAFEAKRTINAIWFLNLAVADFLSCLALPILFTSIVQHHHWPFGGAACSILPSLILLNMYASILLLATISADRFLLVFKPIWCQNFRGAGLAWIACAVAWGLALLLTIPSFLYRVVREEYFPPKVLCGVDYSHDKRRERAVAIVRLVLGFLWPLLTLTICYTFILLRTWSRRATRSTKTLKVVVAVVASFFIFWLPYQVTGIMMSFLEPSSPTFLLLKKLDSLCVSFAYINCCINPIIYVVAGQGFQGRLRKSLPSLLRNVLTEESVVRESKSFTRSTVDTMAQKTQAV
Format: cell-based

Row | Structure (SMILES) | inhibition [%]
1 | CNC(=N)Nc1ccc(OC)c(OCc2ccccc2)c1 | 20
2 | C/N=C(/N)Nc1ccc(OCc2ccccc2)c(-c2ccc(F)cc2)c1 | 20
3 | C/N=C(/N)Nc1ccc(Oc2ccccc2)c(OCc2ccccc2)c1 | 32
4 | CC/N=C(\N)Nc1ccc(OCc2ccccc2)c(OCc2ccccc2)c1 | 40

Each compound was assayed against T1, C5a anaphylatoxin chemotactic receptor 1 (Homo sapiens) (assay: Tested in vitro for the inhibition against C5a anaphylatoxin chemotactic receptor assayed on human monocyte cell line U937; Inactive at 30 uM). Conditions: U-937.
Format: cell-based

Row | Structure (SMILES) | inhibition [%]
5 | NCc1ccc(OCc2ccccc2)c(OCc2ccccc2)c1 | < 20
6 | Nc1ccc(OCc2ccccc2)c(OCc2ccccc2)c1 | < 20
7 | CNC(=N)Cc1ccc(OCc2ccccc2)c(OCc2ccccc2)c1 | < 20
8 | C/N=C(/N)c1ccc(OCc2ccccc2)c(OCc2ccccc2)c1 | < 20
9 | N=C(N)NCc1ccc(OCc2ccccc2)c(OCc2ccccc2)c1 | < 20
10 | C/N=C(/N)Nc1ccc(OCc2ccccc2)c(OCCc2ccccc2)c1 | < 20
11 | CNC(=N)Nc1ccc(OCc2ccccc2)c(-c2ccccc2OC)c1 | < 20
12 | CC(=N)Nc1ccc(OCc2ccccc2)c(OCc2ccccc2)c1 | < 20

What follows are compounds tested against T2, C5a anaphylatoxin chemotactic receptor 1 (Homo sapiens, UniProt P21730) (assay: Binding affinity against C5a anaphylatoxin chemotactic receptor assayed on human monocyte cell line U937). Conditions: not given.
T2 sequence (P21730 whole entry): T1 sequence (whole entry)
Format: cell-based, U-937

Row | Structure (SMILES) | IC50 [µM]
13 | CNC(N)=Nc1ccc(OCCC2CCCCC2)c(OCc2ccccc2)c1 | 9
14 | C/N=C(\N)Nc1ccc(OCc2ccccc2)c(OCc2ccccc2)c1 | 30
15 | CNC(N)=Nc1ccc(OCc2ccccc2)c(-c2ccccc2)c1 | 2
16 | C/N=C(/N)Nc1ccc(OCC2CCCCC2)c(OCc2ccccc2)c1 | 8
17 | C/N=C(/N)Nc1ccc(OCc2ccccc2)c(-c2cccc(F)c2)c1 | 8
18 | CNC(N)=Nc1ccc(OCCc2ccccc2)c(OCc2ccccc2)c1 | 7.5
19 | CNC(=N)Nc1ccc(OCc2ccccc2)c(-c2cccc(OC)c2)c1 | 9
20 | N=C(N)Nc1ccc(OCc2ccccc2)c(OCc2ccccc2)c1 | > 100
21 | CNC(N)=Nc1ccc(OCc2ccccc2)c(-c2ccc(OC)cc2)c1 | 54
22 | C/N=C(/N)Nc1ccc(OCc2ccccc2)c(-c2cccs2)c1 | 9
23 | CNC(N)=Nc1ccc(OCc2ccccc2)c(-c2ccc(Cl)cc2)c1 | 50
24 | C/N=C(/N)Nc1ccc(OCc2ccccc2)c(-c2cccc3ccccc23)c1 | 4.5
25 | CNC(N)=Nc1ccc(OCCCCc2ccccc2)c(OCc2ccccc2)c1 | 4
26 | CNC(N)=Nc1ccc(OCCCc2ccccc2)c(-c2ccccc2)c1 | 1
27 | CNC(N)=Nc1ccc(OCc2ccccc2)c(OC2CCCC2)c1 | 25
28 | CCCCOc1ccc(NC(=N)NC)cc1OCc1ccccc1 | 30
29 | C/N=C(/N)Nc1ccc(OCCC2CCCCC2)c(-c2ccccc2)c1 | 1
30 | C/N=C(/N)Nc1ccc(OCc2ccccc2)c(Oc2ccccc2)c1 | 4
31 | CNC(N)=Nc1ccc(OCCCc2ccccc2)c(OCc2ccccc2)c1 | 6
32 | CNC(N)=Nc1ccc(OCC2CCCCC2)c(-c2ccccc2)c1 | 3

The compounds below were run against T2, C5a anaphylatoxin chemotactic receptor 1 (assay: Compound was evaluated for the antagonistic activity against C5a anaphylatoxin chemotactic receptor in human neutrophil C5a stimulated respiratory burst assay). Conditions: not given.
Format: functional

Row | Structure (SMILES) | IC50 [µM]
33 | CNC(N)=Nc1ccc(OCCc2ccccc2)c(-c2ccccc2)c1 | 0.8
